From ChEMBL document CHEMBL1909046, “DrugMatrix in vitro pharmacology data”

Experiments:
Melanocortin receptor 5 = Melanocortin receptor 5 (Homo sapiens, UniProt P33032); type: cell membranes, HEK293, Membrane; details: hek293; note: in other assays of this panel Not Active means under 50% inhibition at 10 µM
[1] = target: T1, Alpha-1D adrenergic receptor (Homo sapiens, UniProt P25100); type: cell membranes, HEK293, Membrane; note: in other assays of this panel Not Active means under 50% inhibition at 10 µM
T1 sequence (P25100 whole entry): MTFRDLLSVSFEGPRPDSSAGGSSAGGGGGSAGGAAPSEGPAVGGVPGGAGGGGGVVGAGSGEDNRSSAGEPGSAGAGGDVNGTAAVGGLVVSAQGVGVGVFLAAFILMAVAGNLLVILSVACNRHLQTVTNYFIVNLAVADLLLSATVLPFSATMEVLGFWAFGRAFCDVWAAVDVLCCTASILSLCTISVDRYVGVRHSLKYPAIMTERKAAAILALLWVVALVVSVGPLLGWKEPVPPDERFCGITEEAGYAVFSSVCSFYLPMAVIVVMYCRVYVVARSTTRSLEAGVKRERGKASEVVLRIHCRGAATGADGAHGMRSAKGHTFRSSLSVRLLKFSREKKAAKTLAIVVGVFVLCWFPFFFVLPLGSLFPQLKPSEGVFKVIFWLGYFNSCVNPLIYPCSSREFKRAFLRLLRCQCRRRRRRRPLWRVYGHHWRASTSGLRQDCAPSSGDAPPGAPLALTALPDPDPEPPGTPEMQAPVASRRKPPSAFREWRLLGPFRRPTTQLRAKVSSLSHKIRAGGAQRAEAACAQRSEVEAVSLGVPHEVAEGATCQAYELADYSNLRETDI

[2] = DRUGMATRIX: Calcium Channel Type L, Dihydropyridine radioligand binding (ligand: [3H] Nitrendipine); type: cell membranes, Rattus norvegicus, Wistar, Cerebral cortex, Membrane; details: Not Active = under 50% inhibition at 10 µM
[3] = target: Protein phosphatase 3 catalytic subunit alpha (Homo sapiens, UniProt Q08209); parameters: species or system Escherichia coli;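 note: inhibition of calcineurin (PP2B) enzyme activity, measured with DiFMUP as the substrate; in other assays of this panel Not Active means under 50% inhibition at 10 µM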
Leukotriene C4 synthase = target: T2, Leukotriene C4 synthase (Cavia porcellus, UniProt A6XA80); type: tissue-based, Lung;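 note: enzyme inhibition assay of leukotriene C4 synthase, using LTA4 as the substrate; in other assays of this panel Not Active means under 50% inhibition at 10 µM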
T2 sequence (A6XA80 whole entry): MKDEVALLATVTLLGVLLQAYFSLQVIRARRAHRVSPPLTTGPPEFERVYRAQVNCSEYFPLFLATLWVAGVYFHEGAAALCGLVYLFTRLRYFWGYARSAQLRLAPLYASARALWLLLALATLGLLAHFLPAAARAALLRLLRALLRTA

Acetylcholinesterase = Acetylcholinesterase (Homo sapiens, UniProt P22303); assay: DRUGMATRIX: Acetylcholinesterase enzyme inhibition (substrate: acetylthiocholine); type: cell-based, HEK293; details: hek293; Not Active = under 50% inhibition at 10 µM
Acetylcholinesterase, sequence (P22303 whole entry): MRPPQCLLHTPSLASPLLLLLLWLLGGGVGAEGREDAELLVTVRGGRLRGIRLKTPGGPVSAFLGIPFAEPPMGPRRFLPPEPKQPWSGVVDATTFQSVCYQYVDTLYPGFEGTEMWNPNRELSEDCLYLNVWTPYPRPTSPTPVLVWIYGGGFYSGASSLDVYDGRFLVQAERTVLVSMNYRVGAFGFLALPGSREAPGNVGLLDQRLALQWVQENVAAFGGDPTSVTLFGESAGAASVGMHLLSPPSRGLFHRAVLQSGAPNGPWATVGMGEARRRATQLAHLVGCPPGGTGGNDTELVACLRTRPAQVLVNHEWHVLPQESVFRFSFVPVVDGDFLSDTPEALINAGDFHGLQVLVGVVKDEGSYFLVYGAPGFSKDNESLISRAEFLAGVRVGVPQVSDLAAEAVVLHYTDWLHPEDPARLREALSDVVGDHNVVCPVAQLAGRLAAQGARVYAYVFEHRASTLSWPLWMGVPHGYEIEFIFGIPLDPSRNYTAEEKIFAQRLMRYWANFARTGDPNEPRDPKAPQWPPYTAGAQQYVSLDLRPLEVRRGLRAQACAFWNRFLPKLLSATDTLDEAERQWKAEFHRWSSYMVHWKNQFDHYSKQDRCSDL

Melanocortin receptor 5, sequence (P33032 whole entry): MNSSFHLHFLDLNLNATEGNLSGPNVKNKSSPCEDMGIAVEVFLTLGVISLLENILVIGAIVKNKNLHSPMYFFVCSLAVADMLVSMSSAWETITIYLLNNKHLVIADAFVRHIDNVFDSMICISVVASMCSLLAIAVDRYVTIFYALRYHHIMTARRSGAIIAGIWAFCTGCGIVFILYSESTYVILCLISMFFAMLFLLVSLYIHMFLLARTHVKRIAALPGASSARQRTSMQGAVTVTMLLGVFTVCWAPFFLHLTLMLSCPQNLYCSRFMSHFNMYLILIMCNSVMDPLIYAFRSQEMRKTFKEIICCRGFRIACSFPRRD

| SMILES | IC50 (Melanocortin receptor 5) | IC50 ([1]; hek293) | IC50 [2] | Ki [2] | IC50 [3] | IC50 (Leukotriene C4 synthase) | IC50 (Acetylcholinesterase) | Ki [1] [nM] | IC50 ([1]; read-out: IC50) [nM] | Ki ([1]; read-out: Ki) [nM] |
| --- | --- | --- | --- | --- | --- | --- | --- | --- | --- | --- |
| O=C(c1ccccc1C(F)(F)F)N1CCC(Cc2ccccc2)CC1 | Not Active | Not Active | Not Active | Not Active | Not Active | Not Active | Not Active |  |  |  |
| O=C/C=C/c1ccccc1 | Not Active | Not Active | Not Active | Not Active | Not Active | Not Active | Not Active |  |  |  |
| Nc1ccc2c3c(cccc13)C(=O)NC2=O | Not Active | Not Active | Not Active | Not Active | Not Active | Not Active | Not Active |  |  |  |
| COc1ccc(C(=O)N2CCCC2=O)cc1 | Not Active | Not Active | Not Active | Not Active | Not Active | Not Active | Not Active |  |  |  |
| O=c1cnn([C@@H]2O[C@H](CO)[C@@H](O)[C@H]2O)c(=O)[nH]1 [6-AZAURIDINE] | Not Active | Not Active | Not Active | Not Active | Not Active | Not Active | Not Active |  |  |  |
| CC[C@H](C)[C@H]1O[C@]2(C=C[C@@H]1C)C[C@@H]1C[C@@H](C/C=C(\C)[C@@H](O[C@H]3C[C@H](OC)[C@@H](O[C@H]4C[C@H](OC)[C@@H](O)[C@H](C)O4)[C@H](C)O3)[C@@H](C)/C=C/C=C3\CO[C@@H]4[C@H](O)C(C)=C[C@@H](C(=O)O1)[C@]34O)O2.CO[C@H]1C[C@H](O[C@H]2[C@H](C)O[C@@H](O[C@@H]3/C(C)=C/C[C@@H]4C[C@@H](C[C@]5(C=C[C@H](C)[C@@H](C(C)C)O5)O4)OC(=O)[C@@H]4C=C(C)[C@@H](O)[C@H]5OC/C(=C\C=C\[C@@H]3C)[C@]54O)C[C@@H]2OC)O[C@@H](C)[C@@H]1O [ABAMECTIN] | Not Active | Not Active | Not Active | Not Active | Not Active | Not Active | Not Active |  |  |  |
| NCCCC(O)(P(=O)(O)O)P(=O)(O)O [ALENDRONIC ACID] | Not Active | Not Active | Not Active | Not Active | Not Active | Not Active | Not Active |  |  |  |
| Cc1nnc2n1-c1ccc(Cl)cc1C(c1ccccc1)=NC2 [ALPRAZOLAM] | Not Active | Not Active | Not Active | Not Active | Not Active | Not Active | Not Active |  |  |  |
| Cn1c(=O)c2[nH]cnc2n(C)c1=O.Cn1c(=O)c2[nH]cnc2n(C)c1=O.NCCN [AMINOPHYLLINE] | Not Active | Not Active | Not Active | Not Active | Not Active | Not Active | Not Active |  |  |  |
| CCC1(CCC(C)C)C(=O)NC(=O)NC1=O [AMOBARBITAL] | Not Active | Not Active | Not Active | Not Active | Not Active | Not Active | Not Active |  |  |  |
| CC1(C)S[C@@H]2[C@H](NC(=O)[C@H](N)c3ccccc3)C(=O)N2[C@H]1C(=O)O [AMPICILLIN] | Not Active | Not Active | Not Active | Not Active | Not Active | Not Active | Not Active |  |  |  |
| COc1ccc(C2C(=O)c3ccccc3C2=O)cc1 [ANISINDIONE] | Not Active | Not Active | Not Active | Not Active | Not Active | Not Active | Not Active |  |  |  |
| O=C1O[C@H]([C@@H](O)CO)C(O)=C1O [ASCORBIC ACID] | Not Active | Not Active | Not Active | Not Active | Not Active | Not Active | Not Active |  |  |  |
| CN1[C@@H]2CC[C@H]1C[C@@H](OC(=O)C(CO)c1ccccc1)C2 (some centres undefined) [ATROPINE] | Not Active |  | Not Active | Not Active | Not Active | Not Active | Not Active | 666 | 1350 |  |
| CC(C(=O)O)c1ccc2oc(-c3ccc(Cl)cc3)nc2c1 (centres undefined) [BENOXAPROFEN] | Not Active | Not Active | Not Active | Not Active | Not Active | Not Active | Not Active |  |  |  |
| COc1ccc2cc3[n+](cc2c1OC)CCc1cc2c(cc1-3)OCO2.[Cl-] [BERBERINE CHLORIDE] | Not Active | Not Active | Not Active | Not Active | Not Active | Not Active |  |  |  |  |
| O=C(O)CCNC(=O)c1ccccc1 [BETAMIPRON] | Not Active | Not Active | Not Active | Not Active | Not Active | Not Active | Not Active |  |  |  |
| CC(=O)Oc1ccc(C(c2ccc(OC(C)=O)cc2)c2ccccn2)cc1 [BISACODYL] | Not Active | Not Active | Not Active | Not Active | Not Active | Not Active | Not Active |  |  |  |
| Cc1cc2c(OCC(CNC(C)(C)C)OC(=O)c3ccccc3)cccc2[nH]1 (centres undefined) [BOPINDOLOL] | Not Active | Not Active | Not Active | Not Active | Not Active | Not Active | Not Active |  |  |  |
| Brc1c(NC2=NCCN2)ccc2nccnc12 [BRIMONIDINE] | Not Active |  | Not Active | Not Active | Not Active | Not Active | Not Active |  | 1720 | 846 |
| CN(C)[C@@H]1C(O)=C(C(N)=O)C(=O)[C@@]2(O)C(O)=C3C(=O)c4c(O)ccc(Cl)c4[C@@](C)(O)[C@H]3C[C@@H]12 [CHLORTETRACYCLINE] | Not Active | Not Active | Not Active | Not Active | Not Active | Not Active | Not Active |  |  |  |
| CN/C(=N\CCSCc1nc[nH]c1C)NC#N [CIMETIDINE] | Not Active | Not Active | Not Active | Not Active | Not Active | Not Active | Not Active |  |  |  |
| COc1cc(N)c(Cl)cc1C(=O)NC1CCN(CCCOc2ccc(F)cc2)CC1OC (centres undefined) [CISAPRIDE] | Not Active |  | Not Active | Not Active | Not Active | Not Active | Not Active |  | 189 | 93 |
| CCC(=O)O[C@]1(C(=O)CCl)[C@@H](C)C[C@H]2[C@@H]3CCC4=CC(=O)C=C[C@]4(C)[C@@]3(F)[C@@H](O)C[C@@]21C [CLOBETASOL PROPIONATE] | Not Active | Not Active | Not Active | Not Active | Not Active | Not Active | Not Active |  |  |  |
| O=C1CN=C(c2ccccc2Cl)c2cc([N+](=O)[O-])ccc2N1 [CLONAZEPAM] | Not Active | Not Active | Not Active | Not Active | Not Active | Not Active | Not Active |  |  |  |
| Nc1ccn([C@@H]2O[C@H](CO)[C@@H](O)[C@@H]2O)c(=O)n1 [CYTARABINE] | Not Active | Not Active | Not Active | Not Active | Not Active | Not Active | Not Active |  |  |  |
| C[C@@H]1C[C@H]2[C@@H]3CCC4=CC(=O)C=C[C@]4(C)[C@@]3(F)[C@@H](O)C[C@]2(C)[C@H]1C(=O)CO [DESOXIMETASONE] | Not Active | Not Active | Not Active | Not Active | Not Active | Not Active | Not Active |  |  |  |
| COc1ccc2c3c1O[C@H]1C[C@@H](O)C=C[C@@]31CCN(C)C2 [GALANTAMINE] | Not Active | Not Active | Not Active | Not Active | Not Active | Not Active |  |  |  |  |
| Oc1c(Cl)cc(Cl)c(Cl)c1Cc1c(O)c(Cl)cc(Cl)c1Cl [HEXACHLOROPHENE] | Not Active | Not Active | Not Active | Not Active | Not Active | Not Active |  |  |  |  |
| COc1cc2nc(N3CCN(C(=O)c4ccco4)CC3)nc(N)c2cc1OC [PRAZOSIN] | Not Active |  | Not Active | Not Active | Not Active | Not Active | Not Active |  |  |  |
